From article PMC9343874, “Comparative Pharmacokinetics of Cinobufacini Capsule and Injection by UPLC-MS/MS” (Frontiers in Pharmacology, 2022)
Like-named read-outs stand apart in the source and are kept apart here.

Columns and labels:
[1] = Stability of analytes in rat plasma QC samples under storage conditions; format: physicochemical; settings: n = 6; for Stability during 24 h at 4°C, RE: post-treatment storage in autosampler; for −80°C for 30 days, RE / Three freeze–thaw cycles, RE: rat plasma; for −80°C for 30 days, RE: long-term; for Three freeze–thaw cycles, RE: −80°C to room temperature
Procedure: The stability of QC samples in six replicates at three concentrations (low, medium, and high levels) was analyzed under different storage conditions: the post-treatment stability was analyzed after storage in an autosampler (4°C) for 24 h. Freeze–thaw stability was investigated after three freeze–thaw cycles (−80°C to room temperature as one cycle). Long-term stability was assessed by analyzing QC samples kept at −80°C for 30 days. The concentrations of the analytes in the plasma samples and the QC samples were calculated by the calibration standard curve prepared each day. The stabilities of analytes were acceptable when the accuracy (RE, %) and precision (RSD, %) of all QC samples in all storage conditions were within ±15% compared to nominal concentrations.

[2] = Pharmacokinetic study in rats after intravenous administration of cinobufacini injection (UPLC-MS/MS of plasma); format: in vivo, rat
Procedure: (§1) Male Sprague–Dawley rats (weighing 200–220 g) of SPF grade were offered by Sippr/BK laboratory Animal, Corp., Ltd. (Shanghai, China) and fed in the Laboratory Animal Center of the Shanghai University of Traditional Chinese Medicine. All the rats were kept under environmentally controlled conditions with constant temperature (22–24°C) and humidity (60–65%). The animal experiment program in the present research was approved by the Animal Committee of the Shanghai University of Traditional Chinese Medicine (PZSHUTCM210618012).
(§2) An Agilent 1290 liquid chromatographic system includes a G4220A quaternary pump, a G1326C column incubator, a G4226A automatic sampler, and a G1330B degasser. The column temperature was set to 35°C. A measure of 5 µL of samples were separated in an Agilent SB-C18 column (2.1 mm ×50 mm, 1.8 μm) and eluted at 0.3 ml/min, followed by gradient elution with water (0.1% V/V formic acid) (A) and acetonitrile (B) (0–1 min, 20%–20% B; 1–3.5 min, 20%–80% B; 4–4.1 min, 80%-20% B; 4.1–6 min, 20% B). The total run time was 6 minutes.
(§3) An Agilent 1290 Infinity series UPLC system was combined with an Agilent 6460 series triple quadrupole mass spectrometer (Agilent Technologies, Santa Clara, CA, United States) to quantify all 13 analytes in an ESI-positive ionization mode. Quantitative analysis was performed in an MRM mode. The mass spectrum conditions were as follows: capillary voltage, 4000V; drying gas (N2), gas flow rate: 10 L/min; sprayer, 30 psi; gas temperature 350°C; The delta EMV (+) 200 V; collision gas (N2); dwell time, 25 ms. Agilent’s MassHunter Workstation software was used for data collection, peak area calculation, and quantitative analysis.
(§4) A measure of 50 µL of the plasma sample was mixed with 10 µL of the internal standard solution (345 ng/ml) in a 1.5-ml centrifuge tube and vortexed for 5 min. The samples were extracted by 500 µL of ethyl acetate for 5 min and centrifuged at 4°C for 10 min (18000 rpm). All the supernatants were collected into another 1.5-ml centrifuge tube, dried under a gentle stream of nitrogen at 37°C, and then added with 50 µL of 80% methanol for resolution. The resolution samples were centrifuged at 4°C for 10 min (18000 rpm), and 5 µL supernatant was extracted and injected for analysis.
(§5) Twenty-four male Sprague–Dawley rats (weigh 200–220 g) were divided into four groups with six rats in each group randomly, including three capsule groups at three different doses and one injection group. In the instructions for cinobufacini capsule and injection, the clinical dosage for adults is 2 g per 70 kg orally and 20 ml per 70 kg intravenously, converting to rat doses of 180 mg/kg and 1.8 ml/kg, respectively.
(§6) In the pre-experiments, we compared cinobufacini capsule of 180 mg/kg (one-time clinical dose) and 900 mg/kg (five times of clinical dose) and Cinobufacini injection of 1.8 ml/kg, but concentrations of some compounds in plasma were too low and difficult to be quantified. […] The experimental rats were led to fast the night and were free to get access to water for 12 h before the pharmacokinetic study. After administration, blood samples (approximately 150 μL) of rats were collected via retro-orbital sinus into heparinized centrifuge tubes at 0.05, 0.083, 0.25, 0.5, 0.75, 1, 2, 4, 6, 8, and 10 h. After centrifugation at 5,000 rpm for 10 min, the plasma was transferred to 1.5-ml polypropylene tubes and stored at −80°C until UPLC-MS/MS analysis.
(§7) GraphPad Prism software (version 8.0.2) was used to draw the mean plasma concentration–time curves of all analytes. The pharmacokinetic parameters were calculated by DAS 3.2.8 software. Meanwhile, the pharmacokinetic data on rats were presented as mean ± standard deviation (SD). Differences of pharmacokinetic parameters between groups were analyzed by the t-test using SPSS software (version 26.0). Differences were considered significant statistically when the p-values were <0.05 and very significant statistically when the p-values were <0.01.

[3] = Pharmacokinetic study in rats after oral administration of cinobufacini capsule (UPLC-MS/MS of plasma); format: in vivo, rat; settings: male, Sprague-Dawley, in vivo, rat plasma, mean ± SD, n = 6; for CL/F: read-out: CLz/F (converted); for MRT last: read-out: MRT0-t; for MRT inf: read-out: MRT0-∞; for half-life: read-out: T1/2z (converted); for Vd/F: read-out: Vz/F
Procedure: as §1, §2, §3, §4, §5, §6, §7

[4] = high QC level (249.58–250.28 ng/ml)
[5] = medium QC level (49.92–50.06 ng/ml)
[6] = oral cinobufacini capsule 0.9 g/kg (low)
[7] = oral cinobufacini capsule 1.8 g/kg (medium)
[8] = oral cinobufacini capsule 3.6 g/kg (high)

SMILES	Stability during 24 h at 4°C, RE [1, 4]	Stability during 24 h at 4°C, RE ([1]; low QC level (4.99–5.00 ng/ml))	Stability during 24 h at 4°C, RE [1, 5]	−80°C for 30 days, RE [1, 4]	−80°C for 30 days, RE ([1]; low QC level (4.99–5.00 ng/ml))	−80°C for 30 days, RE [1, 5]	Three freeze–thaw cycles, RE [1, 4]	Three freeze–thaw cycles, RE ([1]; low QC level (4.99–5.00 ng/ml))	Three freeze–thaw cycles, RE [1, 5]	AUC(0-inf) [3, 6]	AUC(0-t) [3, 6]	Cmax [3, 6]	Tmax [3, 6]	CL/F [3, 6]	MRT last [3, 6]	MRT inf [3, 6]	half-life [3, 6]	Vd/F [3, 6]	AUC(0-inf) [3, 7]	AUC(0-t) [3, 7]	also measured
C[C@]12CC[C@H](O)C[C@H]1CC[C@@H]1[C@@H]2C(=O)[C@@H](O)[C@]2(C)[C@@H](c3ccc(=O)oc3)CC[C@]12O [PBG, pseudobufarenogin]	10.2%	6.6%	12.0%	4.7%	8.3%	7.5%	7.7%	4.4%	13.3%	13.8 ± 5.4 ng·h/mL	13.3 ± 4.42 ng·h/mL	9.3 ± 3.04 ng/mL	15 min	33.5 mL/min/kg	2.4 ± 0.63 h	2.76 ± 1 h	91.2 ± 58.8 min	7.15 ± 2.16 L/kg	28.6 ± 6.25 ng·h/mL	28.4 ± 6.26 ng·h/mL	concentrations in most rat plasma samples relative to LLOQ ([2]; after intravenous administration of cinobufacini injection, pharmacokinetic parameters could not be calculated): far below the LLOQs; detection in rat plasma ([2]; cinobufacini injection group, intravenous): could be detected; Cmax [3, 7]: 24.5 ± 7.32 ng/mL; Tmax [3, 7]: 24 ± 13.2 min; CL/F [3, 7]: 30.8 mL/min/kg; MRT last [3, 7]: 1.49 ± 0.08 h; MRT inf [3, 7]: 1.54 ± 0.11 h; half-life [3, 7]: 61.8 ± 36.6 min; Vd/F [3, 7]: 2.65 ± 1.51 L/kg; AUC(0-inf) [3, 8]: 47.7 ± 9.78 ng·h/mL; AUC(0-t) [3, 8]: 47.3 ± 9.4 ng·h/mL; Cmax [3, 8]: 42.8 ± 10.2 ng/mL; Tmax [3, 8]: 19.2 ± 7.2 min; CL/F [3, 8]: 36.7 mL/min/kg; MRT last [3, 8]: 1.47 ± 0.39 h; MRT inf [3, 8]: 1.57 ± 0.39 h; half-life [3, 8]: 118 ± 40.2 min; Vd/F [3, 8]: 5.65 ± 1.61 L/kg
C[C@]12CC[C@H](O)C[C@@]1(O)CC[C@@H]1[C@@H]2CC[C@]2(C)[C@@H](c3ccc(=O)oc3)[C@@H](O)[C@H]3O[C@]132 [DCT, desacetylcinobufotalin]	9.6%	11.4%	7.3%	8.7%	2.4%	12.7%	7.3%	3.7%	12.1%	13.4 ± 3.76 ng·h/mL	13 ± 3.69 ng·h/mL	6.94 ± 5.35 ng/mL	52.2 ± 37.8 min	66 mL/min/kg	2.53 ± 0.99 h	2.95 ± 1.78 h	49.8 ± 15 min	5.16 ± 2.57 L/kg	35.7 ± 12.1 ng·h/mL	34.2 ± 10.4 ng·h/mL	Cmax [3, 7]: 12.3 ± 3.11 ng/mL; Tmax [3, 7]: 36.6 ± 19.2 min; CL/F [3, 7]: 50.3 mL/min/kg; MRT last [3, 7]: 2.68 ± 0.88 h; MRT inf [3, 7]: 3.1 ± 0.92 h; half-life [3, 7]: 118 ± 81.6 min; Vd/F [3, 7]: 8.27 ± 5.18 L/kg; AUC(0-inf) [3, 8]: 62.7 ± 16.8 ng·h/mL; AUC(0-t) [3, 8]: 61.2 ± 16.1 ng·h/mL; Cmax [3, 8]: 22.2 ± 5.19 ng/mL; Tmax [3, 8]: 23.4 ± 12 min; CL/F [3, 8]: 42.5 mL/min/kg; MRT last [3, 8]: 2.28 ± 0.37 h; MRT inf [3, 8]: 2.53 ± 0.58 h; half-life [3, 8]: 91.8 ± 49.2 min; Vd/F [3, 8]: 5.59 ± 3.29 L/kg
C[C@]12CC[C@H](O)C[C@H]1CC[C@@H]1[C@@H]2[C@H](O)C[C@]2(C)[C@@H](c3ccc(=O)oc3)CC[C@]12O [GBL, gamabufotalin]	5.4%	12.0%	10.9%	−4.9%	8.3%	12.4%	−0.6%	13.2%	10.7%	13.6 ± 3.08 ng·h/mL	10.8 ± 2.45 ng·h/mL	13.3 ± 5.28 ng/mL	15 min	150 mL/min/kg	0.41 ± 0.11 h	0.64 ± 0.16 h	22.2 min	4.75 ± 0.98 L/kg	23.4 ± 15 ng·h/mL	21.9 ± 11.6 ng·h/mL	Cmax [3, 7]: 21.5 ± 7.57 ng/mL; Tmax [3, 7]: 27.6 ± 13.8 min; CL/F [3, 7]: 210 mL/min/kg; MRT last [3, 7]: 0.73 ± 0.1 h; MRT inf [3, 7]: 0.79 ± 0.22 h; half-life [3, 7]: 16.8 ± 15.6 min; Vd/F [3, 7]: 3.03 ± 2.02 L/kg; AUC(0-inf) [3, 8]: 54.5 ± 12.4 ng·h/mL; AUC(0-t) [3, 8]: 54 ± 12 ng·h/mL; Cmax [3, 8]: 49.5 ± 10.9 ng/mL; Tmax [3, 8]: 21.6 ± 12 min; CL/F [3, 8]: 153 mL/min/kg; MRT last [3, 8]: 0.83 ± 0.12 h; MRT inf [3, 8]: 0.86 ± 0.14 h; half-life [3, 8]: 18 ± 9.6 min; Vd/F [3, 8]: 3.74 ± 1.66 L/kg
